Experimental data as given in patent US11130733B2, “4-OXO-alkylated tetramic acid compound, preparation method and use thereof” (BEIJING JOEKAI BIOTECH. LLC, priority 2017, dated 2021).

Assays:
[1] = tested on: Salmonella typhimurium TA98; assay: Mini Ames experiment, strain TA98; format: cell-based
Method: (§1) Histidine auxotrophic strains of Salmonella typhimurium were cultured in a special medium with quite a low content of histidine. The strains were difficult to divide due to lack of nutrition. If a test compound has mutagenicity, a large number of cells will undergo reverse mutation, synthesizing histidine by themselves and developing into colonies visible to the naked eye. In view of the close relationship between mutagenicity and carcinogenesis of chemicals, this method has been widely used in screening carcinogens. Some chemicals need metabolic activation to induce mutagenicity. Mammalian microsomal enzyme S9 can be added into the test system to eliminate the influence of metabolic activation on generation of mutagenicity.
(§2) […] Mini Ames test with compound 50561

[2] = tested on: Salmonella typhimurium TA100; assay: Mini Ames experiment, strain TA100; format: cell-based
Method: as §1, §2

CR mice = assay: MTD experiment, dose gradient by gavage; format: in vivo; conditions: for Survival number: 10 mice per dose
Method: Mice are commonly used rodents to evaluate the toxicity of a test sample and are also an important part of early preclinical safety evaluation. In this experiment, the toxicity of compound 50561 was tested by administering a dose gradient thereof to the mice by gavage and observing its toxicity.
This experiment was designed such that for each dose centration, 10 mice were tested, including half males and half females. The males each weighed about 18-23 grams, and the females each weighed about 17-21 grams. They were randomly grouped by a simple randomization procedure. All the animals used in the experiment weighed between ±20% of the average body weight of their respective genders. If there are not enough animals in the study to meet the weight range required thereby, notify the responsible person of the project to take reasonable measures. Animals must be adapted to the laboratory for at least three days. During this period, daily cage observation was conducted once a day, and a detailed clinical observation was necessary before the experiment. Any animal with symptoms or physical abnormalities would be reported to the attending veterinarian and responsible person of the project, and excluded whenever possible. Animals suitable for experimentation will be assigned to respective experimental groups according to the random grouping method described above.
During the experiment, after administration, all animals were observed continuously for 4 hours; from the end of administration till 3 days thereafter, observations were carried out twice each day, one in the morning and the other in the afternoon; and then observation was carried out once a day. Observations included but were not limited to: skin, hair, eyes, ears, nose, mouth, chest, abdomen, external genitals, limbs, and feet. The respiratory and circulatory systems, autonomic effects (such as salivation), and nervous system (such as tremors, convulsions, stress responses, and abnormal behaviors) should be focused on. Complete anatomical examinations would be performed on all animals that had died, were dying, or planned to be euthanized. Animals found dead outside of fixed working hours could be placed in the refrigerator overnight and dissected immediately on the next working day. At the end of the experiment (14th day after administration), all animals requiring autopsy would be euthanized and autopsied.
External abnormalities in animals, such as palpable masses, should be examined in detail. The skin would be cut along the midline of the abdomen, and any subcutaneous mass would be confirmed in conjunction with the findings in the observations of animal symptoms. […] Diseased organs were removed, weighed, recoded, and kept in a fixative fluid.

[3] = tested on: Drosophilae containing and expressing human Abeta42 gene; assay: Pavlov's olfactory-related instantaneous memory test in Drosophila; format: in vivo; conditions: FIG. 3; with increase of dosage; compared with positive compound memantine hydrochloride
[4] = TA98, With Metabolic Activation, 1.5 μg per well
[5] = TA98, With Metabolic Activation, 4 μg per well
[6] = TA98, With Metabolic Activation, 10 μg per well
[7] = TA98, With Metabolic Activation, 25 μg per well
[8] = TA98, With Metabolic Activation, 64 μg per well
[9] = TA98, With Metabolic Activation, 160 μg per well
[10] = TA98, With Metabolic Activation, 400 μg per well
[11] = TA98, With Metabolic Activation, 1000 μg per well
[12] = TA98, Without Metabolic Activation, 1.5 μg per well
[13] = TA98, Without Metabolic Activation, 4 μg per well
[14] = TA98, Without Metabolic Activation, 10 μg per well
[15] = TA98, Without Metabolic Activation, 25 μg per well
[16] = TA98, Without Metabolic Activation, 64 μg per well
[17] = TA98, Without Metabolic Activation, 160 μg per well
[18] = TA98, Without Metabolic Activation, 400 μg per well
[19] = TA98, Without Metabolic Activation, 1000 μg per well
[20] = TA100, With Metabolic Activation, 1.5 μg per well
[21] = TA100, With Metabolic Activation, 4 μg per well
[22] = TA100, With Metabolic Activation, 10 μg per well
[23] = TA100, With Metabolic Activation, 25 μg per well
[24] = TA100, With Metabolic Activation, 64 μg per well
[25] = TA100, With Metabolic Activation, 160 μg per well
[26] = TA100, With Metabolic Activation, 400 μg per well
[27] = TA100, With Metabolic Activation, 1000 μg per well
[28] = TA100, Without Metabolic Activation, 1.5 μg per well
[29] = TA100, Without Metabolic Activation, 4 μg per well
[30] = TA100, Without Metabolic Activation, 10 μg per well
[31] = TA100, Without Metabolic Activation, 25 μg per well
[32] = TA100, Without Metabolic Activation, 64 μg per well
[33] = TA100, Without Metabolic Activation, 160 μg per well
[34] = TA100, Without Metabolic Activation, 400 μg per well
[35] = TA100, Without Metabolic Activation, 1000 μg per well

SMILES: O=C1C=C(OCc2ccc(F)cc2)[C@H](Cc2ccccc2)N1 [Compound 50561]
- Mean Revertants Per Well [1, 4]: 8.67
- Ratio Treated/Solvent [1, 4]: 1.04
- Mean Revertants Per Well [1, 5]: 13.33
- Ratio Treated/Solvent [1, 5]: 1.60
- Mean Revertants Per Well [1, 6]: 9.33
- Ratio Treated/Solvent [1, 6]: 1.12
- Mean Revertants Per Well [1, 7]: 12.67
- Ratio Treated/Solvent [1, 7]: 1.52
- Mean Revertants Per Well [1, 8]: 12.33
- Ratio Treated/Solvent [1, 8]: 1.48
- Mean Revertants Per Well [1, 9]: 7.00
- Ratio Treated/Solvent [1, 9]: 0.84
- Mean Revertants Per Well [1, 10]: 0.00
- Ratio Treated/Solvent [1, 10]: 0.00
- Mean Revertants Per Well [1, 11]: 0.00
- Ratio Treated/Solvent [1, 11]: 0.00
- Mean Revertants Per Well [1, 12]: 9.00
- Ratio Treated/Solvent [1, 12]: 1.32
- Mean Revertants Per Well [1, 13]: 8.00
- Ratio Treated/Solvent [1, 13]: 1.17
- Mean Revertants Per Well [1, 14]: 8.00
- Ratio Treated/Solvent [1, 14]: 1.17
- Mean Revertants Per Well [1, 15]: 8.33
- Ratio Treated/Solvent [1, 15]: 1.22
- Mean Revertants Per Well [1, 16]: 7.33
- Ratio Treated/Solvent [1, 16]: 1.07
- Mean Revertants Per Well [1, 17]: 7.33
- Ratio Treated/Solvent [1, 17]: 1.07
- Mean Revertants Per Well [1, 18]: 0.00
- Ratio Treated/Solvent [1, 18]: 0.00
- Mean Revertants Per Well [1, 19]: 0.00
- Ratio Treated/Solvent [1, 19]: 0.00|
- mutagenicity ([1]; TA98, presence or absence of S9): no obvious mutagenicity
- Mean Revertants Per Well [2, 20]: 25.33
- Ratio Treated/Solvent [2, 20]: 0.78
- Mean Revertants Per Well [2, 21]: 30.33
- Ratio Treated/Solvent [2, 21]: 0.93
- Mean Revertants Per Well [2, 22]: 32.33
- Ratio Treated/Solvent [2, 22]: 0.99
- Mean Revertants Per Well [2, 23]: 28.67
- Ratio Treated/Solvent [2, 23]: 0.88
- Mean Revertants Per Well [2, 24]: 31.00
- Ratio Treated/Solvent [2, 24]: 0.95
- Mean Revertants Per Well [2, 25]: 28.33
- Ratio Treated/Solvent [2, 25]: 0.87
- Mean Revertants Per Well [2, 26]: 0.00
- Ratio Treated/Solvent [2, 26]: 0.00
- Mean Revertants Per Well [2, 27]: 0.00
- Ratio Treated/Solvent [2, 27]: 0.00
- Mean Revertants Per Well [2, 28]: 25.67
- Ratio Treated/Solvent [2, 28]: 1.04
- Mean Revertants Per Well [2, 29]: 25.33
- Ratio Treated/Solvent [2, 29]: 1.03
- Mean Revertants Per Well [2, 30]: 28.67
- Ratio Treated/Solvent [2, 30]: 1.16
- Mean Revertants Per Well [2, 31]: 19.00
- Ratio Treated/Solvent [2, 31]: 0.77
- Mean Revertants Per Well [2, 32]: 23.33
- Ratio Treated/Solvent [2, 32]: 0.95
- Mean Revertants Per Well [2, 33]: 17.33
- Ratio Treated/Solvent [2, 33]: 0.70
- Mean Revertants Per Well [2, 34]: 0.00
- Ratio Treated/Solvent [2, 34]: 0.00
- Mean Revertants Per Well [2, 35]: 0.00
- Ratio Treated/Solvent [2, 35]: 0.00
- mutagenicity ([2]; TA100, presence or absence of S9): no obvious mutagenicity
- Remarks: condition of the body (CR mice; 250 mg/kg): in good condition.
- Survival number (CR mice; 250 mg/kg by gavage): 10
- Remarks: Body weight decreased by (CR mice; 250 mg/kg, quickly recovered): about 2 g, which was quickly
- Remarks: Body weight decreased by (CR mice; 500 mg/kg): about 2 g; individual activity
- Remarks: condition of the body; organs of the dead individuals (CR mice; 500 mg/kg): in good condition. There
- Survival number (CR mice; 500 mg/kg by gavage): 8
- Remarks: organs in dead individuals (CR mice; 750 mg/kg): No abnormality of organs
- Survival number (CR mice; 750 mg/kg by gavage): 0
- Remarks: organs in dead individuals (CR mice; 1000 mg/kg): No abnormality of organs
- Survival number (CR mice; 1000 mg/kg by gavage): 0
- maximum tolerance (MTD) (CR mice; CR mice, by gavage): < 500 mg/kg
- dose-effect relationship to improve memory of drosophilae [3]: eventually reaches or exceeds the level of the activity of the positive compound memantine hydrochloride
